Experimental data: patent US10392363B2, “Methods for treating protozoan infections” (Neoculi Pty Ltd., priority 2014, dated 2019)

How the values were obtained:
[1] = Release from Formulation B (Franz diffusion cells); type: physicochemical; conditions: absolute ethanol receptor, 32° C., up to 24 hours
Procedure: Franz diffusion cells were utilized to quantify the release rate of NCL 812 and NCL099 from its topical formulations. Five milliliters of absolute ethanol, which was chosen as the desired release medium, was loaded into the receptor chamber. Temperature of the receptor fluid was kept constant, at 32±1° C. using a water jacket. Acetyl cellulose membranes, with pore size of 0.45 μm (Pall Corporation) was selected and placed between donor and receptor chamber. Followed by that, a number of test samples (Formulation B) was loaded into the donor chamber. One milliliter of receptor fluid was collected at regular time intervals of 0.25, 0.50, 0.75, 1, 2, 3, 4, 5, 6, 7, 8 and 24 hours through the sampling port. One milliliter of fresh absolute ethanol was immediately returned to the receptor chamber. UV-HPLC was utilized to analyse the content of the receptor fluids attained.

[2] = Microsomal stability, mouse; type: in vitro ADME; conditions: mouse, 1 μM
Procedure: (§1) Incubation methods: The metabolic stability assay was performed by incubating each test compound (at 1 μM) with human and mouse liver microsomes (Xenotech, Lot#1210057 and 1310211, respectively) at 37° C. and 0.4 mg/mL protein concentration. The metabolic reaction was initiated by the addition of an NADPH-regenerating system (i.e. NADPH is the cofactor required for CYP450-mediated metabolism) and quenched at various time points over a 60 minute incubation period by the addition of acetonitrile containing diazepam as internal standard. Control samples (containing no NADPH) were included (and quenched at 2, 30 and 60 minutes) to monitor for potential degradation in the absence of cofactor. Analytical conditions: Instrument: Waters Micromass Xevo G2 QTOF coupled to a Waters Acquity UPLC; Detection: Positive electrospray ionisation under MSE mode; Cone Voltage 30 V; Column: Ascentis Express Amide column (50×2.1 mm, 2.7 μm); LC conditions: Gradient cycle time: 4 minutes; Injection volume: 5 μL; Flow rate: 0.4 mL/min; Mobile phase: Acetonitrile-water gradient with 0.05% formic acid Metabolite; Identification: A metabolite screen was not included in this study, however, since data was acquired using MSE mode, which allows for the simultaneous acquisition of low and high collision energy MS spectra, a post-hoc metabolite search may be conducted at a later date if warranted. […]

[3] = Microsomal stability, human; type: in vitro ADME; conditions: human, 1 μM
Procedure: as §1

[4] = test system: Giardia duodenalis (strain WB trophozoites); assay: Giardia adherence assay; type: cell-based; conditions: exposed for 5 hours
Procedure: Giardia strain WB was grown until confluent (grown and maintained in TYI-S-33 medium with 10% foetal bovine serum). For the assay, media of a confluent culture was replaced with fresh TYI-S-33 medium. Cultures were then cold shocked (on ice) for 40 minutes to detach trophozoites. The cell density of the cultures was adjusted to 1×10^6 cells/ml and 1 ml was added to each well of a 24 well plate already containing 1 ml of diluted compounds (see below). […] After incubation the coverslips were removed, air-dried and stained with Diff-Quik (a Romanowski stain variant). Coverslips were mounted onto glass slides using polymount. Images at 10× magnification were taken at 5 random locations per coverslip. […] Stock solutions of compounds were prepared in DMSO at 25.6 mg/ml. Compounds were diluted 1:100 in TYI-S-33 medium. A 1:2 serial dilution was then performed in TYI-S-33 medium in 24 well plates.

[5] = test system: Leishmania donovani promastigotes; assay: L. donovani screening (Alamarblue); type: cell-based
Summary of the method: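 Procyclic promastigotes from exponential cultures screened at 10 μM, 4×10^5 cells/ml, 96 h at 27° C. For dose-response, threefold dilutions from 0.005 to 10 μM, 1×10^6 cells/ml, 72 h at 27° C. Viability read by Alamarblue fluorescence, ex 530/em 590 nm.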

[6] = test system: Giardia duodenalis (WB strain trophozoites); assay: Transmission electron microscopy study; type: cell-based; conditions: 6 μg/ml NCL812, 1 hour
Procedure: Samples were incubated at 37° C. for 1 hour (NCL treated) or 4 hours (Metronidazole and DMSO control) then cold shocked to detach trophozoites. Treated samples were centrifuged at 900×g for 10 minutes and washed twice with cold saline. Final cell pellet was resuspended in pre-cooled fixative (1.25% gluteraldehyde, 4% paraformaldehyde in PBS with 4% sucrose, pH 7.2) and left overnight. […] Samples were embedded in epoxy resin and stained with uranyl acetate and lead citrate before viewing on an FEI Tecnai G2 Spirit Transmission Electron Microscope.

[7] = test system: Trypanosoma cruzi (Tulahuen trypomastigotes expressing β-galactosidase, in L6 cells); assay: In vitro T. cruzi assay for determination of IC50; type: cell-based; conditions: Trypanosoma cruzi, TULAHUEN, L6; 96 h incubation
Summary of the method: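 Tulahuen T. cruzi expressing β-galactosidase, grown in L6 cells; compounds tested as seven-point serial dilutions in triplicate after removing extracellular trypomastigotes.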

N=C(N/N=C/c1ccc(Cl)cc1)N/N=C/c1ccc(Cl)cc1 [NCL812, 1,3-bis[(E)-(4-chlorophenyl)methyleneamino]guanidine]
release profile from Formulation B [1]: acceptable release profile
predicted hepatic extraction ratio (EH) [2]: < 0.3
predicted hepatic extraction ratio (EH) [3]: < 0.3
number of adherent trophozoites [4]: significant decreases
L. donovani SI ([5]; GI50 of macrophages divided by IC50 of parasites): 5.12
IC50 ([5]; Leishmania donovani, 72 h): 2900 ± 240 nM
changes to the ultrastructure of Giardia duodenalis [6]: significant changes
IC50 [7]: > 11000 nM
